# Test results published in patent US12497663B2, “Method of monitoring treatment” (LDN Pharma Limited, priority 2019, dated 2025).
# Tested on: CD3+ cells
# Assay: Gene expression in CD3+ cells from CD14-ve PBMCs cultured with naltrexone (Illumina biochips)
# Format: cell-based, human
# Conditions: 4 h
# Protocol: The RNA was then extracted from the cells using Trizol then isopropanol. The expression of the genes was measured using Illumina platform with biochips surveying the total human genome. […] The ratio of treated:untreated was calculated and the 25% change from untreated considered relevant.
smiles,measurement,setting,value
"O=C1CC[C@@]2(O)[C@H]3Cc4ccc(O)c5c4[C@@]2(CCN3CC2CC2)[C@H]1O5 [NTX, morphinan-6-one,17-(cyclopropylmethyl)-4,5-epoxy-3,14-dihydroxy-(5a)]",number of genes upregulated by LDN but unchanged by NTX,"10 nM LDN vs 10 uM NTX, 19,571 genes called present, 25% change relevant",223 genes
same,"ACTB expression, LDN",10 nM naltrexone (LDN),156
same,"ALDH4A1 expression, LDN",10 nM naltrexone (LDN),135
same,"ASAP1 expression, LDN",10 nM naltrexone (LDN),97
same,"BCLAF1 expression, LDN",10 nM naltrexone (LDN),130
same,"BIRC3 expression, LDN",10 nM naltrexone (LDN),173
same,"CASZ1 expression, LDN",10 nM naltrexone (LDN),167
same,"CDC42SE2 expression, LDN",10 nM naltrexone (LDN),119
same,"CDKN2AIP expression, LDN",10 nM naltrexone (LDN),93
same,"DRAP1 expression, LDN",10 nM naltrexone (LDN),309
same,"DYNLL2 expression, LDN",10 nM naltrexone (LDN),93
same,"EIF2S3 expression, LDN",10 nM naltrexone (LDN),135
same,"EIF3E expression, LDN",10 nM naltrexone (LDN),427
same,"EIF4B expression, LDN",10 nM naltrexone (LDN),594
same,"EZR expression, LDN",10 nM naltrexone (LDN),1218
same,"FRG1 expression, LDN",10 nM naltrexone (LDN),99
same,"H3F3A expression, LDN",10 nM naltrexone (LDN),616
same,"HIST1H4C expression, LDN",10 nM naltrexone (LDN),1093
same,"HPCAL1 expression, LDN",10 nM naltrexone (LDN),491
same,"ITGB2 expression, LDN",10 nM naltrexone (LDN),719
same,"KCTD6 expression, LDN",10 nM naltrexone (LDN),105
same,"LSM5 expression, LDN",10 nM naltrexone (LDN),166
same,"MAP4K1 expression, LDN",10 nM naltrexone (LDN),475
same,"MORF4L1 expression, LDN",10 nM naltrexone (LDN),135
same,"MTF1 expression, LDN",10 nM naltrexone (LDN),84
same,"MYLK expression, LDN",10 nM naltrexone (LDN),166
same,"NUCB1 expression, LDN",10 nM naltrexone (LDN),436
same,"OR10A6 expression, LDN",10 nM naltrexone (LDN),152
same,"PAH expression, LDN",10 nM naltrexone (LDN),135
same,"PDCD4 expression, LDN",10 nM naltrexone (LDN),83
same,"PECI expression, LDN",10 nM naltrexone (LDN),85
same,"PRPF8 expression, LDN",10 nM naltrexone (LDN),464
same,"PSME2 expression, LDN",10 nM naltrexone (LDN),144
same,"PVRL2 expression, LDN",10 nM naltrexone (LDN),151
same,"RASAL3 expression, LDN",10 nM naltrexone (LDN),356
same,"S100A6 expression, LDN",10 nM naltrexone (LDN),240
same,"SH3BGRL3 expression, LDN",10 nM naltrexone (LDN),327
same,"SPOCK2 expression, LDN",10 nM naltrexone (LDN),1322
same,"WDR75 expression, LDN",10 nM naltrexone (LDN),81
same,"YWHAZ expression, LDN",10 nM naltrexone (LDN),809
same,ACTB L/U-score,10 nM naltrexone,U (increase)
same,ALDH4A1 L/U-score,10 nM naltrexone,U (increase)
same,ASAP1 L/U-score,10 nM naltrexone,D (reduction)
same,BCLAF1 L/U-score,10 nM naltrexone,D (reduction)
same,BIRC3 L/U-score,10 nM naltrexone,D (reduction)
same,CASZ1 L/U-score,10 nM naltrexone,U (increase)
same,CDC42SE2 L/U-score,10 nM naltrexone,D (reduction)
same,CDKN2AIP L/U-score,10 nM naltrexone,D (reduction)
same,DRAP1 L/U-score,10 nM naltrexone,U (increase)
same,DYNLL2 L/U-score,10 nM naltrexone,D (reduction)
same,EIF2S3 L/U-score,10 nM naltrexone,D (reduction)
same,EIF3E L/U-score,10 nM naltrexone,D (reduction)
same,EIF3M L/U-score,10 nM naltrexone,D (reduction)
same,EIF4B L/U-score,10 nM naltrexone,U (increase)
same,EZR L/U-score,10 nM naltrexone,U (increase)
same,FRG1 L/U-score,10 nM naltrexone,D (reduction)
same,H3F3A L/U-score,10 nM naltrexone,D (reduction)
same,HIST1H4C L/U-score,10 nM naltrexone,D (reduction)
same,HPCAL1 L/U-score,10 nM naltrexone,U (increase)
same,ITGB2 L/U-score,10 nM naltrexone,U (increase)
same,KCTD6 L/U-score,10 nM naltrexone,D (reduction)
same,LSM5 L/U-score,10 nM naltrexone,D (reduction)
same,MAP4K1 L/U-score,10 nM naltrexone,U (increase)
same,MORF4L1 L/U-score,10 nM naltrexone,D (reduction)
same,MTF1 L/U-score,10 nM naltrexone,D (reduction)
same,MYLK L/U-score,10 nM naltrexone,U (increase)
same,NUCB1 L/U-score,10 nM naltrexone,U (increase)
same,OR10A6 L/U-score,10 nM naltrexone,U (increase)
same,PAH L/U-score,10 nM naltrexone,U (increase)
same,PDCD4 L/U-score,10 nM naltrexone,D (reduction)
same,PECI L/U-score,10 nM naltrexone,D (reduction)
same,PRPF8 L/U-score,10 nM naltrexone,U (increase)
same,PSME2 L/U-score,10 nM naltrexone,D (reduction)
same,PVRL2 L/U-score,10 nM naltrexone,U (increase)
same,RASAL3 L/U-score,10 nM naltrexone,U (increase)
same,S100A6 L/U-score,10 nM naltrexone,U (increase)
same,SH3BGRL3 L/U-score,10 nM naltrexone,U (increase)
same,SPOCK2 L/U-score,10 nM naltrexone,U (increase)
same,WDR75 L/U-score,10 nM naltrexone,D (reduction)
same,YWHAZ L/U-score,10 nM naltrexone,U (increase)
same,"ACTB expression, NTX",10 uM naltrexone (NTX),124
same,"ALDH4A1 expression, NTX",10 uM naltrexone (NTX),95
same,"ASAP1 expression, NTX",10 uM naltrexone (NTX),114
same,"BCLAF1 expression, NTX",10 uM naltrexone (NTX),159
same,"BIRC3 expression, NTX",10 uM naltrexone (NTX),226
same,"CASZ1 expression, NTX",10 uM naltrexone (NTX),107
same,"CDC42SE2 expression, NTX",10 uM naltrexone (NTX),161
same,"CDKN2AIP expression, NTX",10 uM naltrexone (NTX),101
same,"DRAP1 expression, NTX",10 uM naltrexone (NTX),178
same,"DYNLL2 expression, NTX",10 uM naltrexone (NTX),115
same,"EIF2S3 expression, NTX",10 uM naltrexone (NTX),146
same,"EIF3E expression, NTX",10 uM naltrexone (NTX),601
same,"EIF3M expression, NTX",10 uM naltrexone (NTX),131
same,"EIF4B expression, NTX",10 uM naltrexone (NTX),423
same,"EZR expression, NTX",10 uM naltrexone (NTX),841
same,"FRG1 expression, NTX",10 uM naltrexone (NTX),124
same,"H3F3A expression, NTX",10 uM naltrexone (NTX),739
same,"HIST1H4C expression, NTX",10 uM naltrexone (NTX),1370
same,"HPCAL1 expression, NTX",10 uM naltrexone (NTX),275
same,"ITGB2 expression, NTX",10 uM naltrexone (NTX),443
same,"KCTD6 expression, NTX",10 uM naltrexone (NTX),116
same,"LSM5 expression, NTX",10 uM naltrexone (NTX),218
same,"MAP4K1 expression, NTX",10 uM naltrexone (NTX),267
same,"MORF4L1 expression, NTX",10 uM naltrexone (NTX),149
same,"MTF1 expression, NTX",10 uM naltrexone (NTX),95
same,"MYLK expression, NTX",10 uM naltrexone (NTX),124
same,"NUCB1 expression, NTX",10 uM naltrexone (NTX),337
same,"OR10A6 expression, NTX",10 uM naltrexone (NTX),120
same,"PAH expression, NTX",10 uM naltrexone (NTX),95
same,"PDCD4 expression, NTX",10 uM naltrexone (NTX),96
same,"PECI expression, NTX",10 uM naltrexone (NTX),131
same,"PRPF8 expression, NTX",10 uM naltrexone (NTX),353
same,"PSME2 expression, NTX",10 uM naltrexone (NTX),180
same,"PVRL2 expression, NTX",10 uM naltrexone (NTX),113
same,"RASAL3 expression, NTX",10 uM naltrexone (NTX),186
same,"S100A6 expression, NTX",10 uM naltrexone (NTX),112
same,"SH3BGRL3 expression, NTX",10 uM naltrexone (NTX),271
same,"WDR75 expression, NTX",10 uM naltrexone (NTX),95
same,"YWHAZ expression, NTX",10 uM naltrexone (NTX),462
